Assays:
pBR322 plasmid DNA = test: Agarose gel electrophoresis, DNA cleavage; format: biochemical
Protocol: Electrophoresis assays were performed in 1.5% agarose gel and 1× TBE buffer using the DNA plasmid pBR322. The plasmid (15 µM base pairs) was incubated with 10 and 50 μM concentrations of the coordination compounds for 1 h at 37 °C in presence and absence of ascorbic acid (50 μM) as reducing agent and hydrogen peroxide (500 µM) as ROS generator in a final volume of 20 μL. The DNA-cleaving compound [Cu(phen)2(H2O)](NO3)2 was used as reference. The samples were loaded into the gel with 4 μL of a loading buffer (30% glycerol, 5 mM xylene cyanol), and electrophoresis was performed in 1× TBE at 100 V for 1 h in a Bio-Rad horizontal tank. Subsequently, the gel was stained with SYBR™ Safe overnight and images were acquired with a Gel Doc EZ Imager instrument (Bio-Rad).
Distinct forms of pBR322 plasmid DNA are commonly observed by gel electrophoresis due to the conformational changes that present distinct electrophoretic mobility: (1) supercoiled DNA (Form I) that migrates faster on the gel, (2) circular nicked (Form II), obtained from a one-strand scission, has a slower migration through the gel and (3) linear form (Form III) is generated when both strands are cleaved and migrates between forms I and II [54]. The interaction of the free ligands and their copper(II) and zinc(II) coordination compounds with pBR322 was investigated in presence of H2Asc (50 μM) as reducing agent and H2O2 (500 μM) as ROS generator. Solutions of 10 and 50 µM of the coordination compounds were incubated with the DNA at 37 °C for 1 h.

ct-DNA = test: Circular dichroism of ct-DNA; format: binding, calf; conditions: [DNA]b = 50 µM, [complex]/[DNA] 0-2, 1 h 37 °C
Protocol: For the UV–Vis, fluorescence and circular dichroism assays the concentration of ct-DNA was determined on a Varian Cary 100 Scan spectrophotometer from the absorption at 260 nm and the corresponding molar absorptivity of 6600 M^−1 cm^−1 (nucleobase concentration). The stock solutions of the coordination compounds and the free ligands were prepared in cacodylate/NaCl buffer (1 mM cacodylic acid and 20 mM sodium chloride) at pH 7.25. The final samples contained a DMSO concentration of 0.2%.
Circular dichroism (CD) spectra were recorded using a JASCO-815 spectropolarimeter, equipped with xenon-arc lamp of 450 W. The sample compartment was air-purged with N2 before use. For the measurements, a quartz cuvette with an optical path of 5 mm was used. A solution of 25 µM (in base pairs) of ct-DNA in cacodylate/NaCl buffer was incubated for 1 h at 37 °C with increasing amounts of coordination compounds (0–50 µM). The CD spectra were recorded at room temperature.
The interaction of small molecules with DNA can modify these CD signals depending on the type of binding. Intercalative interactions increase the intensity of the signals, as the result of an increase of the stability of the B conformation, whereas groove binding or covalent interactions tend to decrease the intensity of these signals, which are moreover displaced. The CD spectra for both ligands and their copper(II) and zinc(II) complexes were obtained at constant concentration of ct-DNA, increasing the complex concentration up to two equivalents ([complex]/[DNA] ratios of 0, 0.2, 0.4, 1, 2) with respect to the nucleobases concentration ([DNA]b = 50 µM).

[1] = Distribution coefficient LogD7.4, shake-flask 1-octanol/MOPS buffer; format: physicochemical; conditions: octanol/water (MOPS buffer 10^–2 M), 25 °C, 3 h
Protocol: Solutions between 100 and 10 µM of the free ligands (cenz and onz) and the coordination compounds 3–10 were prepared in a MOPS buffer pH 7.4 as the aqueous phase and in 1-octanol as the organic phase. The absorption at 320 nm and 310 nm was determined for the aqueous and organic phase respectively by electronic spectroscopy (UV–Vis). Through a linear regression (concentration vs. absorption) the molar extinction coefficient of each compound in both phases was determined (Table 3). The lipophilicity was calculated in the 1-octanol/water system from the shake flask method using Eq. 1 [39]:1 […] where, Co is the final concentration in the organic phase and Cw is the final concentration in the aqueous phase (MOPS buffer at 10^–2 M pH 7.4). Both phases were presaturated with 50 µM solutions of the free ligands or 500 µM of each coordination compound and their UV spectrum was recorded. Both phases were combined and kept stirring for 3 h at 25 °C and in the absence of light. Subsequently, the mixture was centrifuged at 400g and the concentration in both phases was determined by UV–Vis spectroscopy using the Beer-Lambert law. The assays were performed in triplicate.
The T gondii parasite is an apicomplex organism; it requires a host cell to live, so it is important that the drugs used against the parasite have easy access to the cell. The lipophilicity of a compound is an important physicochemical property to determine its ability to permeate the biological membrane through passive diffusion; which usually is measured from the distribution coefficient logD7.4 = log(Co/Cw), in n-octanol/water. The shake-flask method was used to determine the LogD7.4 values from the molar extinction coefficients of the coordination compounds and the ligands in the two solvents (Table 3).

[2] = compound 10 (mM in the source), + H2Asc
[3] = compound 10 (mM in the source), + H2Asc + H2O2
[4] = compound 10 (mM in the source), + H2O2
[5] = compound 10 (mM in the source), no additive
[6] = compound 50 (mM in the source), + H2Asc
[7] = compound 50 (mM in the source), + H2Asc + H2O2
[8] = compound 50 (mM in the source), + H2O2
[9] = compound 50 (mM in the source), no additive

Cc1ncc([N+](=O)[O-])n1CCCl.Cc1ncc([N+](=O)[O-])n1CCCl.[Br][Cu][Br] [[Cu(cenz)2Br2]]
%Damage (pBR322 plasmid DNA; [2]): 43.90%
%Supercoiled (pBR322 plasmid DNA; [2]): 56.10%
%Damage (pBR322 plasmid DNA; [3]): 100.00%
%Damage (pBR322 plasmid DNA; [4]): 84.00%
%Nicked (pBR322 plasmid DNA; [4]): 37.10%
%Supercoiled (pBR322 plasmid DNA; [4]): 16.00%
%Damage (pBR322 plasmid DNA; [5]): 37.80%
%Nicked (pBR322 plasmid DNA; [5]): 11.30%
%Supercoiled (pBR322 plasmid DNA; [5]): 62.20%
%Damage (pBR322 plasmid DNA; [6]): 100.00%
%Damage (pBR322 plasmid DNA; [7]): 100.00%
%Damage (pBR322 plasmid DNA; [8]): 100.00%
%Damage (pBR322 plasmid DNA; [9]): 33.80%
%Nicked (pBR322 plasmid DNA; [9]): 7.50%
%Supercoiled (pBR322 plasmid DNA; [9]): 66.20%
effect on CD spectrum of ct-DNA (bands at 275 and 245 nm) (ct-DNA): decrease of the intensity of the positive and negative bands
LogD7.4 [1]: 0.62

Cc1ncc([N+](=O)[O-])n1CCCl.Cc1ncc([N+](=O)[O-])n1CCCl.[Cl][Cu][Cl] [[Cu(cenz)2Cl2]]
%Damage (pBR322 plasmid DNA; [2]): 33.20%
%Nicked (pBR322 plasmid DNA; [2]): 16.60%
%Supercoiled (pBR322 plasmid DNA; [2]): 66.80%
%Damage (pBR322 plasmid DNA; [3]): 100.00%
%Damage (pBR322 plasmid DNA; [4]): 83.50%
%Nicked (pBR322 plasmid DNA; [4]): 84.30%
%Supercoiled (pBR322 plasmid DNA; [4]): 16.50%
%Damage (pBR322 plasmid DNA; [5]): 12.00%
%Supercoiled (pBR322 plasmid DNA; [5]): 88.00%
%Damage (pBR322 plasmid DNA; [6]): 100.00%
%Damage (pBR322 plasmid DNA; [7]): 100.00%
%Damage (pBR322 plasmid DNA; [8]): 100.00%
%Damage (pBR322 plasmid DNA; [9]): 31.50%
%Supercoiled (pBR322 plasmid DNA; [9]): 68.50%
effect on CD spectrum of ct-DNA (bands at 275 and 245 nm) (ct-DNA): decrease of the intensity of the positive and negative bands
LogD7.4 [1]: 0.69

Cc1n(CC(O)CCl)c([N+](=O)[O-])c[n+]1[Cu-2]([Br])([Br])[n+]1cc([N+](=O)[O-])n(CC(O)CCl)c1C (centres unmarked) [[Cu(onz)2Br2]]
%Damage (pBR322 plasmid DNA; [2]): 44.70%
%Nicked (pBR322 plasmid DNA; [2]): 35.60%
%Supercoiled (pBR322 plasmid DNA; [2]): 55.30%
%Damage (pBR322 plasmid DNA; [3]): 100.00%
%Damage (pBR322 plasmid DNA; [4]): 100.00%
%Damage (pBR322 plasmid DNA; [5]): 7.80%
%Supercoiled (pBR322 plasmid DNA; [5]): 92.20%
%Damage (pBR322 plasmid DNA; [6]): 100.00%
%Damage (pBR322 plasmid DNA; [7]): 100.00%
%Damage (pBR322 plasmid DNA; [8]): 100.00%
%Damage (pBR322 plasmid DNA; [9]): 6.70%
%Nicked (pBR322 plasmid DNA; [9]): 23.00%
%Supercoiled (pBR322 plasmid DNA; [9]): 93.30%
effect on CD spectrum of ct-DNA (bands at 275 and 245 nm) (ct-DNA): decrease of the intensity of the positive and negative bands
LogD7.4 [1]: 0.56

Cc1ncc([N+](=O)[O-])n1CC(O)CCl.Cc1ncc([N+](=O)[O-])n1CC(O)CCl.[Cl-].[Cl-].[Cu+2] (centres unmarked) [[Cu(onz)2Cl2]]
%Damage (pBR322 plasmid DNA; [2]): 58.10%
%Nicked (pBR322 plasmid DNA; [2]): 33.00%
%Supercoiled (pBR322 plasmid DNA; [2]): 41.90%
%Damage (pBR322 plasmid DNA; [3]): 80.60%
%Nicked (pBR322 plasmid DNA; [3]): 46.50%
%Supercoiled (pBR322 plasmid DNA; [3]): 19.40%
%Damage (pBR322 plasmid DNA; [4]): 16.40%
%Nicked (pBR322 plasmid DNA; [4]): 6.10%
%Supercoiled (pBR322 plasmid DNA; [4]): 83.60%
%Damage (pBR322 plasmid DNA; [5]): 36.40%
%Nicked (pBR322 plasmid DNA; [5]): 6.40%
%Supercoiled (pBR322 plasmid DNA; [5]): 63.60%
%Damage (pBR322 plasmid DNA; [6]): 100.00%
%Damage (pBR322 plasmid DNA; [7]): 100.00%
%Damage (pBR322 plasmid DNA; [8]): 100.00%
%Damage (pBR322 plasmid DNA; [9]): 33.80%
%Nicked (pBR322 plasmid DNA; [9]): 9.70%
%Supercoiled (pBR322 plasmid DNA; [9]): 66.20%
effect on CD spectrum of ct-DNA (bands at 275 and 245 nm) (ct-DNA): decrease of the intensity of the positive and negative bands
LogD7.4 [1]: 0.61

Cc1ncc([N+](=O)[O-])n1CCCl.Cc1ncc([N+](=O)[O-])n1CCCl.[Br][Zn][Br] [[Zn(cenz)2Br2]]
%Damage (pBR322 plasmid DNA; [2]): 28.40%
%Nicked (pBR322 plasmid DNA; [2]): 6.40%
%Supercoiled (pBR322 plasmid DNA; [2]): 71.60%
%Damage (pBR322 plasmid DNA; [3]): 89.00%
%Nicked (pBR322 plasmid DNA; [3]): 75.80%
%Supercoiled (pBR322 plasmid DNA; [3]): 11.00%
%Damage (pBR322 plasmid DNA; [4]): 19.30%
%Nicked (pBR322 plasmid DNA; [4]): 27.20%
%Supercoiled (pBR322 plasmid DNA; [4]): 80.70%
%Damage (pBR322 plasmid DNA; [5]): 6.20%
%Nicked (pBR322 plasmid DNA; [5]): 3.00%
%Supercoiled (pBR322 plasmid DNA; [5]): 93.80%
%Damage (pBR322 plasmid DNA; [6]): 96.10%
%Nicked (pBR322 plasmid DNA; [6]): 39.50%
%Supercoiled (pBR322 plasmid DNA; [6]): 3.90%
%Damage (pBR322 plasmid DNA; [7]): 78.40%
%Nicked (pBR322 plasmid DNA; [7]): 10.40%
%Supercoiled (pBR322 plasmid DNA; [7]): 21.60%
%Damage (pBR322 plasmid DNA; [8]): 98.40%
%Nicked (pBR322 plasmid DNA; [8]): 63.30%
%Supercoiled (pBR322 plasmid DNA; [8]): 1.60%
%Damage (pBR322 plasmid DNA; [9]): 11.60%
%Nicked (pBR322 plasmid DNA; [9]): 2.20%
%Supercoiled (pBR322 plasmid DNA; [9]): 88.40%
effect on CD spectrum of ct-DNA (bands at 275 and 245 nm) (ct-DNA): spectra changes are minor
LogD7.4 [1]: 0.82

Cc1ncc([N+](=O)[O-])n1CC(O)CCl.Cc1ncc([N+](=O)[O-])n1CC(O)CCl.[Cl][Zn][Cl] (centres unmarked) [[Zn(onz)2Cl2]]
%Damage (pBR322 plasmid DNA; [2]): 91.2%
%Nicked (pBR322 plasmid DNA; [2]): 65.70%
%Supercoiled (pBR322 plasmid DNA; [2]): 8.80%
%Damage (pBR322 plasmid DNA; [3]): 67.90%
%Nicked (pBR322 plasmid DNA; [3]): 44.00%
%Supercoiled (pBR322 plasmid DNA; [3]): 32.10%
%Damage (pBR322 plasmid DNA; [4]): 10.80%
%Nicked (pBR322 plasmid DNA; [4]): 5.90%
%Supercoiled (pBR322 plasmid DNA; [4]): 89.20%
%Damage (pBR322 plasmid DNA; [5]): 14.6%
%Supercoiled (pBR322 plasmid DNA; [5]): 85.40%
%Damage (pBR322 plasmid DNA; [6]): 100%
%Nicked (pBR322 plasmid DNA; [6]): 4.80%
%Damage (pBR322 plasmid DNA; [7]): 100.00%
%Damage (pBR322 plasmid DNA; [8]): 78.30%
%Nicked (pBR322 plasmid DNA; [8]): 47.60%
%Supercoiled (pBR322 plasmid DNA; [8]): 21.70%
%Damage (pBR322 plasmid DNA; [9]): 32.9%
%Nicked (pBR322 plasmid DNA; [9]): 3.90%
%Supercoiled (pBR322 plasmid DNA; [9]): 67.10%
effect on CD spectrum of ct-DNA (bands at 275 and 245 nm) (ct-DNA): spectra changes are minor
LogD7.4 [1]: 0.90
